According to PMC3848336, “Aurora Isoform Selectivity: Design and Synthesis of Imidazo[4,5-b]pyridine Derivatives as Highly Selective Inhibitors of Aurora-A Kinase in Cells” (Journal of Medicinal Chemistry, 2013):
Where two headings read alike, the source gives them in different places.

Columns and labels:
Test in all cases: Kinase selectivity profiling
Assay type in all cases: biochemical
[1] = target: CAMK1 (Homo sapiens, UniProt Q14012)
From the text: (§1) Compound 28c was profiled against a panel of 110 kinases at the International Centre for Protein Kinase Profiling, Division of Signal Transduction Therapy, University of Dundee. Compound 40f was profiled against a panel of 50 kinases (MRC-PPU Express Screen) also at the International Centre for Protein Kinase Profiling.

[2] = target: CAMKKb (Homo sapiens, UniProt Q96RR4)
From the text: as §1

[3] = target: CHK2 (Homo sapiens, UniProt O96017)
From the text: as §1

[4] = target: CK2 (Homo sapiens, UniProt P68400)
From the text: as §1

[5] = target: DYRK1A (Homo sapiens, UniProt Q13627)
From the text: as §1

[6] = target: EF2K (Homo sapiens, UniProt O00418)
From the text: as §1

[7] = target: EPH-A2 (Homo sapiens, UniProt P29317); conditions: read-out: % activity remaining, EPH2A2
From the text: as §1

[8] = target: GSK3b (Homo sapiens, UniProt P49841)
From the text: as §1

[9] = target: HER4 (Homo sapiens, UniProt Q15303)
From the text: as §1

[10] = target: HIPK2 (Homo sapiens, UniProt Q9H2X6)
From the text: as §1

[11] = target: IRAK4 (Homo sapiens, UniProt Q9NWZ3)
From the text: as §1

[12] = target: JAK2 (Homo sapiens, UniProt O60674)
From the text: as §1

[13] = target: JNK1 (Homo sapiens, UniProt P45983)
From the text: as §1

[14] = target: Lck (Homo sapiens, UniProt P06239)
From the text: as §1

[15] = target: MARK3 (Homo sapiens, UniProt P27448)
From the text: as §1

[16] = target: MKK1 (Homo sapiens, UniProt Q02750)
From the text: as §1

[17] = target: MLK3 (Homo sapiens, UniProt Q16584)
From the text: as §1

[18] = target: MSK1 (Homo sapiens, UniProt O75582)
From the text: as §1

[19] = target: MST2 (Homo sapiens, UniProt Q13188)
From the text: as §1

[20] = target: NEK6 (Homo sapiens, UniProt Q9HC98)
From the text: as §1

[21] = target: PAK4 (Homo sapiens, UniProt O96013)
From the text: as §1

[22] = target: PDK1 (Homo sapiens, UniProt O15530)
From the text: as §1

[23] = target: PIM1 (Homo sapiens, UniProt P11309)
From the text: as §1

[24] = target: PKA (Homo sapiens, UniProt P17612)
From the text: as §1

[25] = target: PKBa (Homo sapiens, UniProt P31749, S473D)
From the text: as §1

[26] = target: PKCa (Homo sapiens, UniProt P17252)
From the text: as §1

[27] = target: PKD1 (Homo sapiens, UniProt Q15139)
From the text: as §1

[28] = target: PLK1 (Homo sapiens, UniProt P53350)
From the text: as §1

[29] = target: PRK2 (Homo sapiens, UniProt Q16513)
From the text: as §1

[30] = target: RIPK2 (Homo sapiens, UniProt O43353)
From the text: as §1

[31] = target: ROCK 2 (Rattus norvegicus, UniProt Q62868)
From the text: as §1

[32] = target: RSK1 (Homo sapiens, UniProt Q15418)
From the text: as §1

[33] = target: S6K1 (Homo sapiens, UniProt P23443)
From the text: as §1

[34] = target: SGK1 (Homo sapiens, UniProt O00141)
From the text: as §1

[35] = target: SRPK1 (Homo sapiens, UniProt Q96SB4)
From the text: as §1

[36] = target: Src (Homo sapiens, UniProt P12931)
From the text: as §1

[37] = target: TAK1 (Homo sapiens, UniProt O43318)
From the text: as §1

[38] = target: TBK1 (Homo sapiens, UniProt Q9UHD2)
From the text: as §1

[39] = target: TTK (Homo sapiens, UniProt P33981)
From the text: as §1

[40] = target: TrkA (Homo sapiens, UniProt P04629)
From the text: as §1

[41] = target: VEGFR (VEGFR1) (Homo sapiens, UniProt P17948); conditions: read-out: % activity remaining, VEG2FR
From the text: as §1

[42] = target: p38a MAPK (Homo sapiens, UniProt Q16539)
From the text: as §1

[43] = 50-kinase panel (MRC-PPU Express Screen)

Chain of TBK1 (Q9UHD2 whole entry): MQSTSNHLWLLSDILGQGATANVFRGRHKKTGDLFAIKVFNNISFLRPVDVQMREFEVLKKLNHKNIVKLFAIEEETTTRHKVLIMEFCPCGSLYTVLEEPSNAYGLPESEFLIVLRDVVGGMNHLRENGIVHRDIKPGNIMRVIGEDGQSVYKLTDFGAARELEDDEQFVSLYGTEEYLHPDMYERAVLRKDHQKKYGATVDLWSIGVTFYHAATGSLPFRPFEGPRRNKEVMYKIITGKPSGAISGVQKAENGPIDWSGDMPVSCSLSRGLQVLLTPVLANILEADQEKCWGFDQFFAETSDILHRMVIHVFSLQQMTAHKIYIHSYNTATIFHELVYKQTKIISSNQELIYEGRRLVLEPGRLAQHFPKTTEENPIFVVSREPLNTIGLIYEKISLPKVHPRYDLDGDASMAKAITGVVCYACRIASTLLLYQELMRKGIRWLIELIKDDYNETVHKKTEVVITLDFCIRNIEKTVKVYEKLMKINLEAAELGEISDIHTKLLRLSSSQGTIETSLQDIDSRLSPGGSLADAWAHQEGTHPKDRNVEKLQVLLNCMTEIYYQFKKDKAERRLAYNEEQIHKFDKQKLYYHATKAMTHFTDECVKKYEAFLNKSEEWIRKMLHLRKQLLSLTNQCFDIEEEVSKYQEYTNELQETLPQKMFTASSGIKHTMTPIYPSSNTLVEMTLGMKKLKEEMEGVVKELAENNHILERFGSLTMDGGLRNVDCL
Chain of VEGFR (VEGFR1) (P17948 27-1338, species assumed): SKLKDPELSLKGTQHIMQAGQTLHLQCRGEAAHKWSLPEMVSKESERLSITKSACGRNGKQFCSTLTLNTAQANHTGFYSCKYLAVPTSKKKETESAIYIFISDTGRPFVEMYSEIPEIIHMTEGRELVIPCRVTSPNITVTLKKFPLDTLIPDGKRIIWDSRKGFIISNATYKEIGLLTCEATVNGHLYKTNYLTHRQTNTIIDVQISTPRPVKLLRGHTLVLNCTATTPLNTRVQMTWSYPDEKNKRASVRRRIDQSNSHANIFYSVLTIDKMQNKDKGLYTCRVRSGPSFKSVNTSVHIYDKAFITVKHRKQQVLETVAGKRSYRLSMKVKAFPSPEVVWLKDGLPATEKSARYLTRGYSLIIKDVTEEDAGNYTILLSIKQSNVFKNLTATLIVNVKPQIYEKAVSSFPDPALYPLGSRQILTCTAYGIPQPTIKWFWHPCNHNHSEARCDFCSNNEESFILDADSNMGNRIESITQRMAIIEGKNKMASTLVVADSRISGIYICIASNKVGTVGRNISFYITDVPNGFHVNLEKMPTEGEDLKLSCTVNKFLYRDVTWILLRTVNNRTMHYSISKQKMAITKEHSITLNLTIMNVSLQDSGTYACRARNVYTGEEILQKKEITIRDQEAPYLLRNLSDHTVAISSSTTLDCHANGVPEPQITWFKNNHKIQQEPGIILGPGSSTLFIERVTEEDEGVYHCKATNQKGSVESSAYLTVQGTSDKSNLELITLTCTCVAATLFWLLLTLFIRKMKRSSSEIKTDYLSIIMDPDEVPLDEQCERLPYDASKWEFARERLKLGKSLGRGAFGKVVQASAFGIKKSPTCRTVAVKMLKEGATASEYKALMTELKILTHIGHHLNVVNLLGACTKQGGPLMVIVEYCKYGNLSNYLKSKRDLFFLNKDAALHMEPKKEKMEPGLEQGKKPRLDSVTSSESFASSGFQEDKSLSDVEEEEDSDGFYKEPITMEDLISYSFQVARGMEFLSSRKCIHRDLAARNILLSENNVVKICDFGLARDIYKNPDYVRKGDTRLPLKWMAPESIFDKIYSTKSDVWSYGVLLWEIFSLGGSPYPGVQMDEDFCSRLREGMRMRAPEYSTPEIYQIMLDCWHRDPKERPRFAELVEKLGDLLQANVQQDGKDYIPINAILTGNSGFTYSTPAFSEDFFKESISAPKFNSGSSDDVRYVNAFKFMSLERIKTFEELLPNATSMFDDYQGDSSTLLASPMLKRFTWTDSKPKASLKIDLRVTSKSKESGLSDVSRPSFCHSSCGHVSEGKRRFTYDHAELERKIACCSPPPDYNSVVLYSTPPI
Chain of SRPK1 (Q96SB4 whole entry): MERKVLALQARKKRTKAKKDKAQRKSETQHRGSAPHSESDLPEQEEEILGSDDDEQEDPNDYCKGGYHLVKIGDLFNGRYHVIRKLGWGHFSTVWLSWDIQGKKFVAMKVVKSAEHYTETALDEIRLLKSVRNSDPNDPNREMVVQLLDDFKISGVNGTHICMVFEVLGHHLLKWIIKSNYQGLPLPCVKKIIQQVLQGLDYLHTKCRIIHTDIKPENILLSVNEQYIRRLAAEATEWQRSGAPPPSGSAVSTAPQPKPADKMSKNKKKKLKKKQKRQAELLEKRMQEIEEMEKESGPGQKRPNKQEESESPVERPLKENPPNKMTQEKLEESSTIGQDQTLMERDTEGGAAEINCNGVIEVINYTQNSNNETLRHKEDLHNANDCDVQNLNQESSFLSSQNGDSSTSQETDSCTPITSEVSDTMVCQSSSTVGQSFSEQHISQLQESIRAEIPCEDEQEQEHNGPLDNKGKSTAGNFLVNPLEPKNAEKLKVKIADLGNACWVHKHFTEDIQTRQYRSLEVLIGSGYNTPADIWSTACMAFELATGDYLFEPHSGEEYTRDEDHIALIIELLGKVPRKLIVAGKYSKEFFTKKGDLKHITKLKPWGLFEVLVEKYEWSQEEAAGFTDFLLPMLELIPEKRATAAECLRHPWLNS
Chain of MARK3 (P27448 whole entry): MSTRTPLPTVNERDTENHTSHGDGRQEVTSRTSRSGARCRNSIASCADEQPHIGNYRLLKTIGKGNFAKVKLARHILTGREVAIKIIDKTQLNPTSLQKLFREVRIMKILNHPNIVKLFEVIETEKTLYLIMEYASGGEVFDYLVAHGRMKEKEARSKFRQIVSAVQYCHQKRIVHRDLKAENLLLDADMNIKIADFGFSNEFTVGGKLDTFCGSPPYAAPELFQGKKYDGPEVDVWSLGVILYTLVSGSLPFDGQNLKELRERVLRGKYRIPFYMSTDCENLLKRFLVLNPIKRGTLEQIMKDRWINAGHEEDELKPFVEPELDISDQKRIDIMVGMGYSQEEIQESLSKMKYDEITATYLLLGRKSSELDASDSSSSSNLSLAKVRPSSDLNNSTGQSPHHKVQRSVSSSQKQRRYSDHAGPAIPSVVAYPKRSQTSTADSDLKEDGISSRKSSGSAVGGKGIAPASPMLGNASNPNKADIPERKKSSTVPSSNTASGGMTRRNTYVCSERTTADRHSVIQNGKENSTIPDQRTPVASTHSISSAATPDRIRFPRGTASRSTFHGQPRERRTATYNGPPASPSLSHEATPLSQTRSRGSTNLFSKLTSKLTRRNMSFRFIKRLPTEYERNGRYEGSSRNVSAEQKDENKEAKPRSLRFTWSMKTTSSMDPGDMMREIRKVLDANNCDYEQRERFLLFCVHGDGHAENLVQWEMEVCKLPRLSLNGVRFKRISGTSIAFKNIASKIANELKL
Chain of PDK1 (O15530 whole entry): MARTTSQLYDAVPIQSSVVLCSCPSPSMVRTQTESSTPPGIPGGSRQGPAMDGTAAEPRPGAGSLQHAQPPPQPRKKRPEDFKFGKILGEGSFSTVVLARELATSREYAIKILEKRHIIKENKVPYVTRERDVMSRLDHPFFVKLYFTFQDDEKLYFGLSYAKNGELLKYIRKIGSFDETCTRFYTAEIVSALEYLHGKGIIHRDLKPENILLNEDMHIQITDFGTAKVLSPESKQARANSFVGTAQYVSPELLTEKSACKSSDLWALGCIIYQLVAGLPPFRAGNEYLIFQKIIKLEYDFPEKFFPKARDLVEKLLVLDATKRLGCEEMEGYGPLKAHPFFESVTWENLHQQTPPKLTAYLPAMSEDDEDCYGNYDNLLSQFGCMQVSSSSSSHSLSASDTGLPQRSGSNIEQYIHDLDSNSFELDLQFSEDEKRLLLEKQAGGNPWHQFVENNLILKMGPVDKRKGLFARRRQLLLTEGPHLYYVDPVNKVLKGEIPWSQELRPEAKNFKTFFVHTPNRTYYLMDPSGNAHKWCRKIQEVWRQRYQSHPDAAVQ
Chain of CAMK1 (Q14012 whole entry): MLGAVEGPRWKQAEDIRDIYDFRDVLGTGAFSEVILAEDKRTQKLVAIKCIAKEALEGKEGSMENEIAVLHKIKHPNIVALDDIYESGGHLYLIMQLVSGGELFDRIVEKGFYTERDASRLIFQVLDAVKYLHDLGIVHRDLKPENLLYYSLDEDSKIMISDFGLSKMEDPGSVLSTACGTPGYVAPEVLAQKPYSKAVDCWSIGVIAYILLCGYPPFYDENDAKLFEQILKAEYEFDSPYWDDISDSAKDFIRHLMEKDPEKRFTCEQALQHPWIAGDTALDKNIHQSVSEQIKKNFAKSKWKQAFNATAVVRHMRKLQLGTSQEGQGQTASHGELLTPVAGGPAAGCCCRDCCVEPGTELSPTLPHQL
Chain of Src (P12931 whole entry): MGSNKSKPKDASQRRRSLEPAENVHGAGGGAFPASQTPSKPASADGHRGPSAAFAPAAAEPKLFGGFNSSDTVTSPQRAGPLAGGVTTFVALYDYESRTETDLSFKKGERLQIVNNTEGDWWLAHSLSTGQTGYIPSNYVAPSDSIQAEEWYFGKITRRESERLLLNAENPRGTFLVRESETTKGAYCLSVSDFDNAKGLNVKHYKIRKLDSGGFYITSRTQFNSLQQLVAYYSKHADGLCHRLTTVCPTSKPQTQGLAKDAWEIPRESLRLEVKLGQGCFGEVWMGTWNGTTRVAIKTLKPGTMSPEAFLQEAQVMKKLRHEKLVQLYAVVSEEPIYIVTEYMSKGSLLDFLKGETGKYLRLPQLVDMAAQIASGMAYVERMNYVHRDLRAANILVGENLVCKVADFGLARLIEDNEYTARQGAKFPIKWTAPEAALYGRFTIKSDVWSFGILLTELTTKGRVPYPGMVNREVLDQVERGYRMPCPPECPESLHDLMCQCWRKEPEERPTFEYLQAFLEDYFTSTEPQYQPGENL

Cc1nn(C)cc1-c1nc2c(Oc3ccc(C(=O)Nc4ccccc4)cc3)c(Cl)cnc2[nH]1 [compound 28c, 4-((6-Chloro-2-(1,3-dimethyl-1H-pyrazol-4-yl)-3H-imidazo[4,5-b]pyridin-7-yl)oxy)-N-phenylbenzamide]
remaining activity at 1 µM ([1]; 110-kinase panel): 100%
remaining activity at 1 µM ([2]; 110-kinase panel): 86%
remaining activity at 1 µM ([3]; 110-kinase panel): 111%
remaining activity at 1 µM ([4]; 110-kinase panel): 108%
remaining activity at 1 µM ([5]; 110-kinase panel): 105%
remaining activity at 1 µM ([6]; 110-kinase panel): 93%
remaining activity at 1 µM ([7]; 110-kinase panel): 138%
remaining activity at 1 µM ([8]; 110-kinase panel): 8%
remaining activity at 1 µM ([9]; 110-kinase panel): 95%
remaining activity at 1 µM ([10]; 110-kinase panel): 83%
remaining activity at 1 µM ([11]; 110-kinase panel): 95%
remaining activity at 1 µM ([12]; 110-kinase panel): 63%
remaining activity at 1 µM ([13]; 110-kinase panel): 92%
remaining activity at 1 µM ([14]; 110-kinase panel): 110%
remaining activity at 1 µM ([15]; 110-kinase panel): 83%
remaining activity at 1 µM ([16]; 110-kinase panel): 77%
remaining activity at 1 µM ([17]; 110-kinase panel): 46%
remaining activity at 1 µM ([18]; 110-kinase panel): 89%
remaining activity at 1 µM ([19]; 110-kinase panel): 106%
remaining activity at 1 µM ([20]; 110-kinase panel): 129%
remaining activity at 1 µM ([21]; 110-kinase panel): 82%
remaining activity at 1 µM ([22]; 110-kinase panel): 87%
remaining activity at 1 µM ([23]; 110-kinase panel): 99%
remaining activity at 1 µM ([24]; 110-kinase panel): 101%
remaining activity at 1 µM ([25]; 110-kinase panel): 105%
remaining activity at 1 µM ([26]; 110-kinase panel): 110%
remaining activity at 1 µM ([27]; 110-kinase panel): 109%
remaining activity at 1 µM ([28]; 110-kinase panel): 107%
remaining activity at 1 µM ([29]; 110-kinase panel): 81%
remaining activity at 1 µM ([30]; 110-kinase panel): 98%
remaining activity at 1 µM ([31]; 110-kinase panel): 80%
remaining activity at 1 µM ([32]; 110-kinase panel): 88%
remaining activity at 1 µM ([33]; 110-kinase panel): 81%
remaining activity at 1 µM ([34]; 110-kinase panel): 99%
remaining activity at 1 µM ([35]; 110-kinase panel): 89%
remaining activity at 1 µM ([36]; 110-kinase panel): 80%
remaining activity at 1 µM ([37]; 110-kinase panel): 31%
remaining activity at 1 µM ([38]; 110-kinase panel): 86%
remaining activity at 1 µM ([39]; 110-kinase panel): 102%
remaining activity at 1 µM ([40]; 110-kinase panel): 100%
remaining activity at 1 µM ([41]; 110-kinase panel): 17%
remaining activity at 1 µM ([42]; 110-kinase panel): 91%

Cc1nn(C)cc1-c1nc2c(Oc3ccc(C(=O)NC4CCC4)cc3)c(Cl)cnc2[nH]1 [compound 40f, 4-((6-Chloro-2-(1,3-dimethyl-1H-pyrazol-4-yl)-3H-imidazo[4,5-b]pyridin-7-yl)oxy)-N-cyclobutylbenzamide]
remaining activity at 1 µM [1, 43]: 85%
remaining activity at 1 µM [2, 43]: 86%
remaining activity at 1 µM [3, 43]: 85%
remaining activity at 1 µM [4, 43]: 93%
remaining activity at 1 µM [5, 43]: 104%
remaining activity at 1 µM [6, 43]: 100%
remaining activity at 1 µM [7, 43]: 88%
remaining activity at 1 µM [8, 43]: 25%
remaining activity at 1 µM [9, 43]: 92%
remaining activity at 1 µM [10, 43]: 98%
remaining activity at 1 µM [11, 43]: 89%
remaining activity at 1 µM [12, 43]: 75%
remaining activity at 1 µM [13, 43]: 100%
remaining activity at 1 µM [14, 43]: 95%
remaining activity at 1 µM [15, 43]: 107%
remaining activity at 1 µM [16, 43]: 94%
remaining activity at 1 µM [17, 43]: 31%
remaining activity at 1 µM [18, 43]: 94%
remaining activity at 1 µM [19, 43]: 141%
remaining activity at 1 µM [20, 43]: 90%
remaining activity at 1 µM [21, 43]: 89%
remaining activity at 1 µM [22, 43]: 86%
remaining activity at 1 µM [23, 43]: 87%
remaining activity at 1 µM [24, 43]: 90%
remaining activity at 1 µM [25, 43]: 96%
remaining activity at 1 µM [26, 43]: 96%
remaining activity at 1 µM [27, 43]: 113%
remaining activity at 1 µM [28, 43]: 104%
remaining activity at 1 µM [29, 43]: 92%
remaining activity at 1 µM [30, 43]: 107%
remaining activity at 1 µM [31, 43]: 73%
remaining activity at 1 µM [32, 43]: 90%
remaining activity at 1 µM [33, 43]: 81%
remaining activity at 1 µM [34, 43]: 85%
remaining activity at 1 µM [35, 43]: 95%
remaining activity at 1 µM [36, 43]: 86%
remaining activity at 1 µM [37, 43]: 59%
remaining activity at 1 µM [38, 43]: 93%
remaining activity at 1 µM [39, 43]: 74%
remaining activity at 1 µM [40, 43]: 58%
remaining activity at 1 µM [41, 43]: 7%
remaining activity at 1 µM [42, 43]: 107%
